Reference: patent US20250257075A1, “MACROCYCLIC INHIBITORS OF KRAS FOR THE TREATMENT OF CANCER” (Hoffmann-La Roche Inc., priority 2022, published 2025)

Experiments:
SW620 cells (KRAS G12V) = test: Cell viability assay, G12V; format: cell-based, human; settings: SW620, 72 hrs, Cell Counting Kit-8
Outline: (§1)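 After overnight attachment, cells received compounds (0.5% DMSO) for 72 hrs; viability was then quantified with CCK-8, reading OD450 minus OD650, and IC50 values were obtained from a 4-parameter concentration-response fit.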

[1] = tested on: phosphorylation of ERK, KRAS G12D in AGS cells; test: pERK inhibition assay, G12D; format: cell-based, human; settings: 4 hours of incubation
Outline: (§2)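 NCI-H358 (G12C), AGS (G12D) and SW620 (G12V) cells were seeded overnight at 30,000, 20,000 and 30,000 cells/well, respectively. They were then treated 4 h with compound (0.5% DMSO final), fixed, and methanol-permeabilized. pERK was detected by in-cell ELISA (anti-pERK/HRP, TMB, OD450); IC50 from a 4-parameter sigmoidal fit.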

KRAS G12C-BRAF complex [2] = target: T1, KRAS G12C-BRAF complex (Homo sapiens, UniProt P01116+P62937, G12C); test: KRAS-BRAF with CYPA (500 nM) interaction assay (TR-FRET), G12C; format: biochemical; settings: 3 hours
T1 construct: expressed in transfected cells
T1 sequence (P01116 1-188 isoform P01116-2 G12C): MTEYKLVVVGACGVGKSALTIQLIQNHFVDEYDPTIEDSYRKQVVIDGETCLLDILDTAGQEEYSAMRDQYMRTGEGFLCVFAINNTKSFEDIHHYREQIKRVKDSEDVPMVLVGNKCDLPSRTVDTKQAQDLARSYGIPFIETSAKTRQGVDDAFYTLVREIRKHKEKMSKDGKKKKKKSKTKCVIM
T1 sequence (P62937 whole entry): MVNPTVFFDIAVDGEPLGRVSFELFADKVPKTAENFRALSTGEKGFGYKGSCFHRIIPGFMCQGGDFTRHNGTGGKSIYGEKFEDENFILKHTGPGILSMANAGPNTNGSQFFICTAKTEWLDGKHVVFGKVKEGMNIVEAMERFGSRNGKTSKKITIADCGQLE
Procedure: (§3) Kras-BRAF with CYPA (500 nM) Interaction Assay In this example, TR-FRET was also used to measure the compound or compound-CYPA dependent disruption of the KRAS G12C-BRAF complex. This protocol was also used to measure disruption of KRAS G12D or KRAS G12V binding to BRAF by a compound of the invention, respectively. […] TR-FRET signal was read on a […] microplate reader (Ex320 nm, Em 665/615 nm). Compounds that facilitate disruption of the KRAS-BRAF complex were identified as those eliciting a decrease in the TR-FRET ratio relative to DMSO control wells.

KRAS G12C-BRAF complex [3] = target: T1, KRAS G12C-BRAF complex; test: KRAS G12C-BRAF NanoBit assay in HEK293 cells; format: cell-based; settings: HEK293 stable cell pool, 3 hours of incubation
Outline: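 HEK293 stable pool co-expressing SmBiT-KRAS G12C and BRAF RBD-LgBiT, exposed 3 h to compounds (16-point 3-fold dilution, top final 30 μM). Luminescence was read 20 min after Nano-Glo Live Cell substrate addition. A decrease versus DMSO control indicates disruption of the complex.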

[4] = tested on: phosphorylation of ERK, KRAS G12C in NCI-H358 cells; test: pERK inhibition assay, G12C; format: cell-based, human; settings: NCI-H358, 4 hours of incubation
Outline: as §2

[5] = target: KRAS G12V binding to BRAF (Homo sapiens, UniProt P01116+P62937, G12V); test: KRAS-BRAF with CYPA (500 nM) interaction assay (TR-FRET), G12V; format: biochemical; settings: 3 hours
Chain of KRAS G12V binding to BRAF (P01116 1-188 isoform P01116-2 G12V): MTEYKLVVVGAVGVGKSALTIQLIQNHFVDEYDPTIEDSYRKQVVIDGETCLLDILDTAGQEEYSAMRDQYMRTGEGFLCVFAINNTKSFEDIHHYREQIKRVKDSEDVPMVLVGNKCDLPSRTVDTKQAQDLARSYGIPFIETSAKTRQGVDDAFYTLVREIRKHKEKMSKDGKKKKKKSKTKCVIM
Chain of KRAS G12V binding to BRAF (P62937 whole entry): as the sequence (P62937 whole entry) above
Procedure: as §3

[6] = target: KRAS G12D binding to BRAF (Homo sapiens, UniProt P01116+P62937, G12D); test: KRAS-BRAF with CYPA (500 nM) interaction assay (TR-FRET), G12D; format: biochemical; settings: 3 hours
Chain of KRAS G12D binding to BRAF (P01116 1-188 isoform P01116-2 G12D): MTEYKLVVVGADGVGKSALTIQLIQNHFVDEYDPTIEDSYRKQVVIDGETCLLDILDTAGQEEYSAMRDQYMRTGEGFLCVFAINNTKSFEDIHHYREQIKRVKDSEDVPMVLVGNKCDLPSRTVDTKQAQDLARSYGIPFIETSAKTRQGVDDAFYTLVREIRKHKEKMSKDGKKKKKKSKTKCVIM
Chain of KRAS G12D binding to BRAF (P62937 whole entry): as the sequence (P62937 whole entry) above
Procedure: as §3

[7] = tested on: NCI-H358 cells (KRAS G12C); test: Cell viability assay, G12C; format: cell-based, human; settings: NCI-H358, 72 hrs, Cell Counting Kit-8
Outline: as §1

AGS cells (KRAS G12D) = test: Cell viability assay, G12D; format: cell-based, human; settings: 72 hrs, Cell Counting Kit-8
Outline: as §1

[8] = tested on: phosphorylation of ERK, KRAS G12V in SW620; test: pERK inhibition assay, G12V; format: cell-based, human; settings: SW620, 4 hours of incubation
Outline: as §2

| Compound | IC50 (SW620 cells (KRAS G12V); Homo sapiens, SW-620) [µM] | IC50 ([1]; Homo sapiens) [µM] | IC50 (KRAS G12C-BRAF complex [2]) [µM] | IC50 (KRAS G12C-BRAF complex [3]) [µM] | IC50 ([4]; Homo sapiens) [µM] | IC50 [5] [µM] | IC50 [6] [µM] | IC50 ([7]; Homo sapiens) [µM] | IC50 (AGS cells (KRAS G12D); Homo sapiens) [µM] | IC50 ([8]; Homo sapiens, SW-620) [µM] | IC50 (SW620 cells (KRAS G12V)) [µM] | IC50 [1] [µM] | IC50 [4] [µM] | IC50 [7] [µM] | IC50 (AGS cells (KRAS G12D)) [µM] | IC50 [8] [µM] |
| --- | --- | --- | --- | --- | --- | --- | --- | --- | --- | --- | --- | --- | --- | --- | --- | --- |
| CCn1c(-c2cc(N3CCN(C)CC3)cnc2[C@H](C)OC)c2c3cc(c(F)cc31)-c1csc(n1)C[C@H](NC(=O)[C@H](C(C)C)N(C)C(=O)N1CC(C#CC(F)(F)F)C1)C(=O)N1CCC[C@H](N1)C(=O)OCC(C)(C)C2 (atropisomer, axis not shown; (M)) [Example 14, N-[(1S)-1-[[(7S,13S)-21-ethyl-24-fluoro-(20M)-20-[2-[(1S)-1-methoxyethyl]-5-(4-methylpiperazin-1-yl)-3-pyridyl]-17,17-dimethyl-8,14-dioxo-15-oxa-4-thia-9,21,27,28-tetrazapentacyclo[17.5.2.1^2,5.1^9,13.0^22,26]octacosa-1(25),2,5(28),19,22(26),23-hexaen-7-yl]carbamoyl]-2-methyl-propyl]-N-methyl-3-(3,3,3-trifluoroprop-1-ynyl)azetidine-1-carboxamide] | 0.007 | 0.02 | 1.66 | 0.036 | 0.005 | 1.88 | 4.3 | 0.001 | > 10 | 0.003 |  |  |  |  |  |  |
| CO[C@@H](C)c1ncc(N2CCN(C)CC2)cc1-c1c2c3cc(c(F)cc3n1CC(F)(F)F)-c1csc(n1)C[C@H](NC(=O)[C@H](C(C)C)N(C)C(=O)[C@H]1C[C@@H](C#Cc3ncccn3)C1)C(=O)N1CCC[C@H](N1)C(=O)OCC(C)(C)C2 (relative stereo) [Example 5, cis-N-[(1S)-1-[[(7S,13S)-24-fluoro-(20M)-20-[2-[(1S)-1-methoxyethyl]-5-(4-methylpiperazin-1-yl)-3-pyridyl]-17,17-dimethyl-8,14-dioxo-21-(2,2,2-trifluoroethyl)-15-oxa-4-thia-9,21,27,28-tetrazapentacyclo[17.5.2.1^2,5.1^9,13.0^22,26]octacosa-1(25),2,5(28),19,22(26),23-hexaen-7-yl]carbamoyl]-2-methyl-propyl]-N-methyl-3-(2-pyrimidin-2-ylethynyl)cyclobutanecarboxamide] |  |  | 0.128 | 0.106 |  | 1.1 | 9.95 |  |  |  | 0.23 | 0.145 | 0.058 | 0.007 | 0.536 | < 0.001 |
| CO[C@@H](C)c1ncc(N2CCN(C)CC2)cc1-c1c2c3cc(c(F)cc3n1CC(F)(F)F)-c1csc(n1)C[C@H](NC(=O)[C@@H](CC(=O)N1CC(C#CC(F)(F)F)C1)C(C)C)C(=O)N1CCC[C@H](N1)C(=O)OCC(C)(C)C2 [Example 19, (2S)—N-[(7S,13S)-24-fluoro-(20M)-20-[2-[(1S)-1-methoxyethyl]-5-(4-methylpiperazin-1-yl)-3-pyridyl]-17,17-dimethyl-8,14-dioxo-21-(2,2,2-trifluoroethyl)-15-oxa-4-thia-9,21,27,28-tetrazapentacyclo[17.5.2.1^2,5.1^9,13.0^22,26]octacosa-1(25),2,5(28),19,22(26),23-hexaen-7-yl]-2-isopropyl-4-oxo-4-[3-(3,3,3-trifluoroprop-1-ynyl)azetidin-1-yl]butanamide] | 0.653 | > 10 | 0.24 | 0.075 | 0.221 | 2.25 | > 10 | 0.166 | 3.34 | 0.198 |  |  |  |  |  |  |
